Test results: ChEMBL document CHEMBL2057081, “Triterpenoid saponins from Xanthoceras sorbifolia Bunge and their inhibitory activity on human cancer cell lines” (Bioorg Med Chem Lett, 2012)

What was measured:
Type in all cases: functional, cell-based
HeLa = assay: Cytotoxicity against human HeLa cells by MTT assay
MCF7 = assay: Cytotoxicity against human MCF7 cells by MTT assay
HT-1080 = assay: Cytotoxicity against human HT1080 cells by MTT assay
[1] = Cytotoxicity against human MDA231 cells by MTT assay; conditions: MDA-MB-231
A549 = assay: Cytotoxicity against human A549 cells by MTT assay
[2] = Cytotoxicity against human A375-S2 cells by MTT assay
HEp-2 = assay: Cytotoxicity against human Hep2 cells by MTT assay
BGC-823 = assay: Cytotoxicity against human BGC823 cells by MTT assay
HepG2 = assay: Cytotoxicity against human HepG2 cells by MTT assay
PC-3 = assay: Cytotoxicity against human PC3 cells by MTT assay

Compound | IC50 (HeLa) [µM] | IC50 (MCF7) [µM] | IC50 (HT-1080) [µM] | IC50 [1] [µM] | IC50 (A549) [µM] | IC50 [2] [µM] | IC50 (HEp-2) [µM] | IC50 (BGC-823) [µM] | IC50 (HepG2) [µM] | IC50 (PC-3) [µM]
CC1(C)C[C@H]2C3=CC[C@@H]4[C@@]5(C)CC[C@H](O[C@@H]6O[C@H](CO[C@@H]7O[C@H](CO)[C@@H](O)[C@H](O)[C@H]7O)[C@@H](O)[C@H](O)[C@H]6O)C(C)(C)[C@@H]5CC[C@@]4(C)[C@]3(C)CC(=O)[C@@]2(CO[C@@H]2O[C@H](CO[C@@H]3O[C@H](CO)[C@@H](O)[C@H](O)[C@H]3O)[C@@H](O)[C@H](O)[C@H]2O[C@@H]2O[C@H](CO)[C@@H](O)[C@H](O)[C@H]2O)[C@@H](O)[C@@H]1O [SORBIFOLIASIDE B] | > 100 | > 100 | > 100 | > 100 | > 100 | > 100 | > 100 | > 100 | > 100 | > 100
CC1(C)C[C@H]2C3=CC[C@@H]4[C@@]5(C)CC[C@H](O[C@@H]6O[C@H](CO[C@@H]7O[C@H](CO)[C@@H](O)[C@H](O)[C@H]7O)[C@@H](O)[C@H](O)[C@H]6O)C(C)(C)[C@@H]5CC[C@@]4(C)[C@]3(C)CC[C@@]2(CO[C@@H]2O[C@H](CO[C@@H]3O[C@H](CO)[C@@H](O)[C@H](O)[C@H]3O)[C@@H](O)[C@H](O)[C@H]2O[C@@H]2O[C@H](CO)[C@@H](O)[C@H](O)[C@H]2O)[C@@H](O)[C@@H]1O [SORBIFOLIASIDE A] | > 100 | > 100 | > 100 | > 100 | > 100 | > 100 | > 100 | > 100 | > 100 | > 100
C/C=C(/C)C(=O)O[C@@H]1[C@@H](O)[C@H](O[C@H]2[C@H](O)[C@]3(COC(C)=O)[C@H](O)C[C@]4(C)C(=CC[C@@H]5[C@@]6(C)CC[C@H](O[C@@H]7O[C@H](C(=O)O)[C@@H](O)[C@H](O)[C@H]7O[C@@H]7O[C@H](CO)[C@@H](O)[C@H](O)[C@H]7O)[C@](C)(CO)[C@@H]6CC[C@]54C)[C@@H]3CC2(C)C)O[C@H](C)[C@@H]1OC(=O)/C(C)=C\C [BUNKANKASAPONIN D] | 55.5 | 49.4 | > 100 | 21.8 | 31.7 | 20.4 | > 100 | 23.9 | 33.1 | 13.2
C/C=C(/C)C(=O)O[C@@H]1[C@@H](O)[C@H](O[C@H]2[C@H](O)[C@]3(COC(C)=O)[C@H](O)C[C@]4(C)C(=CC[C@@H]5[C@@]6(C)CC[C@H](O[C@@H]7O[C@H](C(=O)O)[C@@H](O)[C@H](O)[C@H]7O[C@@H]7O[C@H](CO)[C@@H](O)[C@H](O)[C@H]7O)[C@](C)(CO)[C@@H]6CC[C@]54C)[C@@H]3CC2(C)C)O[C@H](C)[C@@H]1OC(C)=O [BUNKANKASAPONIN C] | > 100 | 91.4 | > 100 | 45.1 | 76.8 | 23.3 | > 100 | 82.6 | 60.8 | 92.5
C/C=C(/C)C(=O)O[C@@H]1[C@@H](O)[C@H](O[C@H]2[C@H](OC(C)=O)[C@]3(CO)[C@H](O)C[C@]4(C)C(=CC[C@@H]5[C@@]6(C)CC[C@H](O[C@@H]7O[C@H](C(=O)O)[C@@H](O)[C@H](O)[C@H]7O[C@@H]7O[C@H](CO)[C@@H](O)[C@H](O)[C@H]7O)C(C)(C)[C@@H]6CC[C@]54C)[C@@H]3CC2(C)C)O[C@H](C)[C@@H]1OC(=O)/C(C)=C\C [BUNKANKASAPONIN F] | 4.97 | 4.3 | 1.75 | 3.24 | 5.76 | 5.22 | 4.97 | 11.3 | 2.45 | 2.28
O=c1[nH]cc(F)c(=O)[nH]1 [FLUOROURACIL] | 10.4 | 24.6 | 3.06 | 31.6 | 31.5 | 9.92 | 24.6 | 15.7 | 10.5 | 35.8
CC1(C)C[C@H]2C3=CC[C@@H]4[C@@]5(C)CC[C@H](O[C@@H]6O[C@H](CO[C@@H]7O[C@H](CO)[C@@H](O)[C@H](O)[C@H]7O)[C@@H](O)[C@H](O)[C@H]6O[C@@H]6O[C@H](CO)[C@@H](O)[C@H](O)[C@H]6O)C(C)(C)[C@@H]5CC[C@@]4(C)[C@]3(C)CC(=O)[C@@]2(CO[C@@H]2O[C@H](CO[C@@H]3O[C@H](CO)[C@@H](O)[C@H](O)[C@H]3O)[C@@H](O)[C@H](O)[C@H]2O)[C@@H](O)[C@@H]1O [SORBIFOLIASIDE C] | > 100 | > 100 | > 100 | > 100 | > 100 | > 100 | > 100 | > 100 | > 100 | > 100
C/C=C(/C)C(=O)O[C@@H]1[C@@H](O)[C@H](O[C@H]2[C@H](OC(C)=O)[C@]3(CO)[C@H](O)C[C@]4(C)C(=CC[C@@H]5[C@@]6(C)CC[C@H](O[C@@H]7O[C@H](C(=O)O)[C@@H](O)[C@H](O)[C@H]7O[C@@H]7O[C@H](CO)[C@@H](O)[C@H](O)[C@H]7O)[C@](C)(CO)[C@@H]6CC[C@]54C)[C@@H]3CC2(C)C)O[C@H](C)[C@@H]1OC(=O)/C(C)=C\C [BUNKANKASAPONIN B] | 4.03 | 2.46 | 1.14 | 2.22 | 3.03 | 4.14 | 4.72 | 2.5 | 4.03 | 2.58
C/C=C(/C)C(=O)O[C@@H]1[C@@H](O)[C@H](O[C@H]2CC[C@]3(C)[C@H]4CC=C5[C@@H]6CC(C)(C)[C@@H](O)[C@H](O)[C@]6(CO[C@@H]6O[C@H](CO[C@@H]7O[C@H](CO)[C@@H](O)[C@H](O)[C@H]7O)[C@@H](O)[C@H](O)[C@H]6O)CC[C@@]5(C)[C@]4(C)CC[C@H]3C2(C)C)O[C@H](CO[C@@H]2O[C@H](CO)[C@@H](O)[C@H](O)[C@H]2O)[C@H]1O [SORBIFOLIASIDE D] | > 100 | > 100 | > 100 | > 100 | > 100 | > 100 | > 100 | > 100 | > 100 | > 100
C/C=C(/C)C(=O)O[C@@H]1[C@@H](O)[C@H](O[C@H]2[C@H](OC(C)=O)[C@]3(CO)[C@H](O)C[C@]4(C)C(=CC[C@@H]5[C@@]6(C)CC[C@H](O[C@@H]7O[C@H](C(=O)O)[C@@H](O)[C@H](O)[C@H]7O[C@@H]7O[C@H](CO)[C@@H](O)[C@H](O)[C@H]7O)[C@](C)(CO)[C@@H]6CC[C@]54C)[C@@H]3CC2(C)C)O[C@H](C)[C@@H]1OC(C)=O [BUNKANKASAPONIN A] | 22.2 | 12.7 | 16.3 | 12.2 | 41 | 18.1 | 17.6 | 17.5 | 22.2 | 13.1
C[C@@H]1O[C@@H](O[C@H]2[C@H](OC[C@@]34CC[C@]5(C)C(=CC[C@@H]6[C@@]7(C)CC[C@H](O[C@@H]8O[C@H](CO[C@@H]9O[C@H](CO)[C@@H](O)[C@H](O)[C@H]9O)[C@@H](O)[C@H](O)[C@H]8O)C(C)(C)[C@@H]7CC[C@]65C)[C@@H]3CC(C)(C)[C@@H](O)[C@@H]4O)O[C@H](CO[C@@H]3O[C@H](CO)[C@@H](O)[C@H](O)[C@H]3O)[C@@H](O)[C@@H]2O)[C@H](O)[C@H](O)[C@H]1O [XANIFOLIA O54] | > 100 | > 100 | > 100 | > 100 | > 100 | > 100 | > 100 | > 100 | > 100 | > 100
C/C=C(/C)C(=O)O[C@@H]1[C@@H](O)[C@H](O[C@H]2CC[C@]3(C)[C@H]4CC=C5[C@@H]6CC(C)(C)[C@@H](O)[C@H](O)[C@]6(CO[C@@H]6O[C@H](CO[C@@H]7O[C@H](CO)[C@@H](O)[C@H](O)[C@H]7O)[C@@H](O)[C@H](O)[C@H]6O[C@@H]6O[C@H](CO)[C@@H](O)[C@H](O)[C@H]6O)CC[C@@]5(C)[C@]4(C)CC[C@H]3C2(C)C)O[C@H](CO[C@@H]2O[C@H](CO)[C@@H](O)[C@H](O)[C@H]2O)[C@H]1OC(C)=O [SORBIFOLIASIDE F] | > 100 | > 100 | > 100 | > 100 | > 100 | > 100 | > 100 | > 100 | > 100 | > 100
C/C=C(/C)C(=O)O[C@@H]1[C@@H](O)[C@H](O[C@H]2CC[C@]3(C)[C@H]4CC=C5[C@@H]6CC(C)(C)[C@@H](O)[C@H](O)[C@]6(CO[C@@H]6O[C@H](CO[C@@H]7O[C@H](CO)[C@@H](O)[C@H](O)[C@H]7O)[C@@H](O)[C@H](O)[C@H]6O)C(=O)C[C@@]5(C)[C@]4(C)CC[C@H]3C2(C)C)O[C@H](CO[C@@H]2O[C@H](CO)[C@@H](O)[C@H](O)[C@H]2O)[C@H]1O [SORBIFOLIASIDE E] | > 100 | > 100 | > 100 | > 100 | > 100 | > 100 | > 100 | > 100 | > 100 | > 100
